For this test, the target named is T1, C-X-C chemokine receptor type 3 (Homo sapiens, UniProt P49682).
T1 sequence (P49682 whole entry): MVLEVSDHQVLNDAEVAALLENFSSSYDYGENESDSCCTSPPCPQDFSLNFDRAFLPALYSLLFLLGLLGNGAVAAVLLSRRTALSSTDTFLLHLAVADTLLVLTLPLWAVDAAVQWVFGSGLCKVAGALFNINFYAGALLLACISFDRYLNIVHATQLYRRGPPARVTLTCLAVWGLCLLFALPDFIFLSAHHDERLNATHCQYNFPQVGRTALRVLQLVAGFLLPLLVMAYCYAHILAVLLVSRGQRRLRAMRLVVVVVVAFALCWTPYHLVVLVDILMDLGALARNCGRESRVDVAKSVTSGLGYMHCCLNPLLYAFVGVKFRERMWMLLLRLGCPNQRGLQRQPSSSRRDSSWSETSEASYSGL
Nature of the test: Antagonist activity at human recombinant CXCR3 receptor expressed in CHO-K1 cells assessed as human IP10-induced calcium flux by FLIPR assay. In kind it is functional, cell-based.

Here are results for 28 compounds from ChEMBL document CHEMBL1139268, “Camphor sulfonamide derivatives as novel, potent and selective CXCR3 antagonists” (Bioorg Med Chem Lett, 2009).

The IC50 is the concentration that gives 50% inhibition.

Bounds are passed on as bounds.

Consider `CC1(C)[C@@H]2CC[C@@]1(CS(=O)(=O)N1CCN(c3ccc(C(F)(F)F)nn3)CC1)C(=O)C2`, for which the IC50 is 5010 nM.

As to `CC1(C)[C@@H]2CC[C@@]1(CS(=O)(=O)N1CCN(c3nc(Cl)c(C(F)(F)F)cc3Cl)CC1)C(=O)C2`, the half-inhibitory concentration (IC50) was 316 nM.

For `CC1(C)[C@@H]2CC[C@@]1(CS(=O)(=O)N1CCN(c3ccc(C(F)(F)F)cc3)CC1)C(=O)C2`, the IC50 is above 31600 nM.

For `CC1(O)C[C@H]2CC[C@]1(CS(=O)(=O)N1CCN(c3ccc(C(F)(F)F)cn3)CC1)C2(C)C` (stereo partly drawn), the IC50 was 200 nM.

Regarding `CC1(C)[C@@H]2CC[C@@]1(CS(=O)(=O)N1CCN(c3ncc(C(F)(F)F)cc3[N+](=O)[O-])CC1)C(=O)C2`, the IC50 was 3160 nM.

Consider `CC1(C)[C@@H]2CC[C@@]1(CS(=O)(=O)N1CCN(c3ncccc3C(F)(F)F)CC1)C(=O)C2`, for which the IC50 is above 31600 nM.

Turning to `CC1(C)[C@@H]2CC[C@@]1(CS(=O)(=O)N1CCN(c3ccc(C(F)(F)F)cn3)CC1)C(O)C2` (stereo partly drawn), the IC50 is 158 nM.

For the compound `CC1(C)[C@@H]2CC[C@@]1(CS(=O)(=O)N1CCN(c3ccc(C(F)(F)F)c(Cl)n3)CC1)C(=O)C2`, the IC50 was 251 nM.

Take `CC1(C)[C@@H]2CC[C@@]1(CS(=O)(=O)N1CCN(c3ccc(C(F)(F)F)cn3)CC1)C(F)C2` (stereo partly drawn): the IC50 is 794 nM.

Regarding `CC1(C)[C@@H]2CC[C@@]1(CS(=O)(=O)NC1CCN(c3ccc(C(F)(F)F)cn3)CC1)C(=O)C2`, the IC50 is 15800 nM.

As to `CC1(C)[C@@H]2CC[C@@]1(CS(=O)(=O)N1CCN(c3ncc(C(F)(F)F)cn3)CC1)C(=O)C2`, the IC50 was 316 nM.

Consider `CCNC1C[C@H]2CC[C@]1(CS(=O)(=O)N1CCN(c3ccc(C(F)(F)F)cn3)CC1)C2(C)C` (stereo partly drawn), for which the IC50 is 7940 nM.

In the case of `CC1(C)[C@@H]2CC[C@@]1(CS(=O)(=O)N1CCN(c3cccc(C(F)(F)F)n3)CC1)C(=O)C2`, the IC50 is 25100 nM.

Consider `CC1(C)[C@@H]2CC[C@@]1(CS(=O)(=O)N1CCN(c3ncc(C(F)(F)F)cc3Cl)CC1)C(=O)C2`, for which the IC50 is 398 nM.

With `CC1(C)[C@@H]2CC[C@@]1(CS(=O)(=O)N1CCN(c3nc4ccccc4s3)CC1)C(=O)C2`, the IC50 was above 12600 nM.

`CC(=O)c1ccc(N2CCN(S(=O)(=O)C[C@]34CC[C@H](CC3=O)C4(C)C)CC2)nc1`: the IC50 is above 31600 nM.

As to `CC1(C)[C@@H]2CC[C@@]1(CS(=O)(=O)N1CCN(c3cc4ccccc4cn3)CC1)C(=O)C2`, the IC50 was 15800 nM.

For `CC(C)C1CN(S(=O)(=O)C[C@]23CC[C@H](CC2=O)C3(C)C)CCN1c1ccc(C(F)(F)F)cn1` (stereo partly drawn), the IC50 was above 31600 nM.

Turning to `CC1(C)[C@@H]2CC[C@@]1(CS(=O)(=O)N1CCN(c3ccc(C(F)(F)F)cc3F)CC1)C(=O)C2`, the IC50 is 2000 nM.

With `CN(CCN(C)S(=O)(=O)C[C@]12CC[C@H](CC1=O)C2(C)C)c1ccc(C(F)(F)F)cn1`, the IC50 is above 31600 nM.

Consider `CC1(C)[C@@H]2CC[C@@]1(CS(=O)(=O)N1CCN(c3ccc(Br)cn3)CC1)C(=O)C2`, for which the IC50 is 1580 nM.

Turning to `C[C@@H]1CN(S(=O)(=O)C[C@]23CC[C@H](CC2=O)C3(C)C)CCN1c1ccc(C(F)(F)F)cn1`, the IC50 is 501 nM.

For `CC1(C)[C@@H]2CC[C@@]1(CS(=O)(=O)N1CCN(c3ccccn3)CC1)C(=O)C2`, the IC50 was above 31600 nM.

Take `CC1(C)[C@@H]2CC[C@@]1(CS(=O)(=O)N1CCN(c3ccc(C(F)(F)F)cn3)CC1)C(NS(C)(=O)=O)C2` (stereo partly drawn): the IC50 was 631 nM.

`C[C@@H]1CN(c2ccc(C(F)(F)F)cn2)[C@@H](C)CN1S(=O)(=O)C[C@]12CC[C@H](CC1=O)C2(C)C`: the IC50 is 6310 nM.

As to `CC1(C)[C@@H]2CC[C@@]1(CS(=O)(=O)N1CCN(c3ccc(C(F)(F)F)cn3)C(c3ccccc3)C1)C(=O)C2` (stereo partly drawn), the 50% inhibitory concentration (IC50) was above 31600 nM.

`CC1CN(S(=O)(=O)C[C@]23CC[C@H](CC2=O)C3(C)C)CCN1c1ccc(C(F)(F)F)cn1` (stereo partly drawn): the IC50 was 316 nM.

Regarding `CCC1CN(S(=O)(=O)C[C@]23CC[C@H](CC2=O)C3(C)C)CCN1c1ccc(C(F)(F)F)cn1` (stereo partly drawn), the IC50 is 631 nM.
